Entries after “also recorded” stand apart in the source; their conditions may differ.
Experiments:
ClC-1 mRNA = assay: Quantitative real time RT-PCR of ClC-1 mRNA level; type: in vivo, HSA^LR mice; conditions: 3 weeks after treatment, relative to RNA polymerase II transcription factor IIB
From the text: HSA^LR and WT mice have the same (FVB) inbred strain background. […] FIGS. 25D and 25E show the percentage of ClC-1 splice products that include exon 7a is shown at 3 (D) and 8 (E) weeks following morpholino injection. Mean±s.d.; n=3 per group; **P<0.001; *P=0.035 antisense- versus invert-treated controls; t-test. […] ClC-1 mRNA level is expressed in arbitrary units relative to housekeeping gene RNA polymerase II transcription factor IIB. Mean±s.d.; n=3 per group; *P=0.06 for antisense vs invert-treated control; t-test.
RT-PCR products (22 cycles) were separated on agarose gels, stained with SYBR green II, and scanned on a laser fluorimager (Molecular Dynamics). Band intensity was quantified using ImageQuant software. Total levels of ClC-1 mRNA were determined by quantitative real-time RT-PCR (Taqman, Applied Biosystems) relative to housekeeping gene RNA polymerase II transcription factor IIB.

Mbnl1^ΔE3/ΔE3 mice = assay: Electromyography of myotonia, Mbnl1^ΔE3/ΔE3 mice; type: in vivo; conditions: TA muscle, 3 weeks
Description: FIGS. 27A, 27B, 27C, 27D, and 27E show antisense morpholino represses exon 7a inclusion, restores ClC-1 protein expression, and rescues myotonia in Mbnl1^ΔE3/ΔE3 mice. […] Bar=20 μM. […] Mean±s.d.; n=3 per group; **P<0.0001 antisense- versus invert-treated control; ANOVA.
EMG was performed under general anesthesia as described previously (Kanadia, R. N., et al. (2003) Science 302:1978-1980). Images and video recordings of electromyographic myotonia in HSA^LR and Mbnl1^ΔE3/ΔE3 mice are shown in previous reports (Kanadia, R. N., et al. (2003) Science 302:1978-1980; Mankodi, A., et al. (2000) Science 289:1769-1773). A minimum of 15 needle insertions were performed for each muscle examined Myotonic discharges were graded on a 4 point scale: 0, no myotonia; 1, occasional myotonic discharge in <50% of needle insertions; 2, myotonic discharge in >50% of needle insertions; 3: myotonic discharge with nearly every insertion.

HSA^LR mice = assay: Electromyography of myotonia after ClC-1 antisense morpholino, HSA^LR mice; type: in vivo; conditions: TA muscle
Description: FIGS. 21A, 21B, 21C, and 21D show the effects of antisense morpholino targeting the 3′ splice junction of ClC-1 exon 7a on splicing and myotonia in HSA^LR transgenic mice. Antisense morpholino targeting the 3′ splice junction of ClC-1 exon 7a was injected into tibialis anterior muscle of HSA^LR mice under general anesthesia (sequence 5′-[…]-3′ (SEQ ID NO: 4)). The contralateral muscle was injected with morpholino having the inverted sequence (5′-[…]-3′(SEQ ID NO: 5)). Uptake into muscle fibers was enhanced by in vivo electroporation. The determination of which side received the antisense morpholino was randomized. […] Electromyography was blinded to the randomization.
HSA^LR (Mankodi, A., et al. (2000) Science 289:1769-1773) or Mbnl1^ΔE3/ΔE3 mice (Kanadia, R. N., et al. (2003) Science 302:1978-1980) were anesthetized by intraperitoneal injection of 100 mg/kg ketamine, 10 mg/kg xylazine, and 3 mg/kg acepromazine. TA muscle was pretreated by intramuscular injection of bovine hyaluronidase (15 μl, 0.4 U/μl) (Sigma) (McMahon, J. M., et al. (2001) Gene Ther 8:1264-1270). Two hours later, 10 or 20 μg of morpholino in a total volume of 20 μl phosphate buffered saline (PBS) was injected using a 30-gauge needle. TA muscle was then electroporated using electrodes placed parallel to the long axis of the muscle. Electroporation parameters were 100 V/cm, 10 pulses at 1 Hz, and 20 ms duration per pulse. Antisense or control morpholino with inverted sequence was injected into TA muscles of opposite limbs. The determination of which TA received antisense morpholino was randomized, and investigators remained blinded to this assignment until EMG analyses were completed. Other analyses were performed without blinding. For experiments to determine the distribution of injected oligos, the antisense morpholino was labeled with carboxyfluorescein and cryosections of muscle (10 μM) were examined by fluorescence microscopy, with or without fixation in 4% paraformaldehyde. Some sections were co-labeled with TRITC-wheat germ agglutinin (Parsons, S. A., et al. (2003) Mol Cell Biol 23:4331-4343) (50 μg/ml in PBS; Sigma) and 4′,6-diamidino-2-phenylindole (DAPI) to highlight the surface membranes and nuclei of muscle fibers.
EMG was performed under general anesthesia as described previously (Kanadia, R. N., et al. (2003) Science 302:1978-1980). Images and video recordings of electromyographic myotonia in HSA^LR and Mbnl1^ΔE3/ΔE3 mice are shown in previous reports (Kanadia, R. N., et al. (2003) Science 302:1978-1980; Mankodi, A., et al. (2000) Science 289:1769-1773). […]

Substance	level of ClC-1 mRNA (ClC-1 mRNA)	myotonia (EMG) (Mbnl1^ΔE3/ΔE3 mice)	myotonia (EMG) (HSA^LR mice; 3 weeks (21 days) after injection)	myotonia (EMG) (HSA^LR mice; 8 weeks after injection)	level of ClC-1 mRNA (ClC-1 mRNA; listed as antisense morpholino)	myotonia (EMG) (Mbnl1^ΔE3/ΔE3 mice; listed as antisense morpholino)	myotonia (EMG) (HSA^LR mice; 3 weeks (21 days) after injection, listed as antisense morpholino)	myotonia (EMG) (HSA^LR mice; 8 weeks after injection, listed as antisense morpholino)
control morpholino: control morpholino 5′-GAAGAGACAACGTCTGGCACGGACC-3′, the 5′-3′ invert of the 3′ splice site blocker (all phosphorodiamidate morpholino (PMO)) [reference compound]	not control morpholino with inverted sequence	not in muscle treated with invert control	not different from uninjected muscle	not different from uninjected muscle	–	–	–	–
antisense 1: morpholino 5′-CCAGGCACGGTCTGCAACAGAGAAG-3′ targeting the 3′ splice site of ClC-1 exon 7a (all phosphorodiamidate morpholino (PMO))	–	–	–	–	increased levels of ClC-1 mRNA	reduced the myotonia	marked reduction of myotonia; also recorded: markedly reduced or absent; also recorded: significantly reduced	markedly reduced or absent; also recorded: significantly reduced

— US9371527B2, “Compositions and methods related to protein displacement therapy for myotonic distrophy” (University of Rochester, priority 2006, dated 2016)
